Reference: patent US20230295234A1, “ANTIMICROBIAL PEPTIDOMIMETICS” (SPEXIS AG, priority 2020, published 2023)
Peptide text beside a SMILES is read from it.

Columns and labels:
[1] = system: Escherichia coli ATCC 25922; conditions: ATCC 25922
How it was run: (§1)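 Broth microdilution; cation-adjusted MHII; inoculum ~5×10^5 CFU/mL from 0.5 McFarland saline suspension; peptide two-fold serial dilutions; polysorbate 80 0.002% final; peptide stock 1 mg/mL in water.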

[2] = system: Escherichia coli MCR-1 Af 45; conditions: MCR-1 Af 45
How it was run: as §1

[3] = system: Klebsiella pneumoniae SSI3010; conditions: SSI3010
How it was run: as §1

[4] = system: human red blood cells (hRBC); experiment: Hemolysis of human red blood cells; format: cell-based; conditions: red cells of human, 1 h
How it was run: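 PBS-washed human red blood cells (20% v/v) were incubated with peptide at 200 μg/mL for 1 h at 37 °C with shaking. Supernatant OD was read at 540 nm after 8-fold dilution. Hemolysis is expressed as percent of the water control.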

| Structure (SMILES) | Escherichia coli ATCC 25922 MIC [1] | Escherichia coli MCR-1 Af 45 MIC [2] | Klebsiella pneumoniae SSI3010 MIC [3] | Hemolysis at 0.2 g/L [4] |
| --- | --- | --- | --- | --- |
| CC[C@H](C)[C@H](NC(=O)[C@@H](NC(=O)[C@@H]1C[C@@H](O)CN1C(=O)[C@@H](NC(=O)[C@@H]1C[C@@H](O)CN1C(=O)[C@H](CCCCN)NC(=O)[C@@H](N)CCCCN)C(C)C)[C@@H](C)CC)C(=O)N[C@@H](Cc1ccc(O)cc1)C(=O)N[C@H]1CSSC[C@@H](C(=O)N[C@@H](CCN)C(=O)N[C@@H](CCCNC(=N)N)C(=O)N[C@@H](Cc2ccc(O)cc2)C(=O)O)NC(=O)[C@H](CCCCN)NC(=O)[C@@H](CCN)NC(=O)[C@H]([C@@H](C)O)NC(=O)[C@H](CCN)NC(=O)[C@H](CCCNC(=N)N)NC(=O)[C@H](CC(N)=O)NC1=O [Example 117, Lys-Lys-Hyp-Val-Hyp-Ile-Ile-Tyr-Cys-Asn-Arg-Dab-Thr-^DDab-Lys-Cys-Dab-Arg-Tyr] (HELM PEPTIDE1{K.K.[Hyp].V.[Hyp].I.I.Y.C.N.R.[Dab].T.[NCC[C@@H](N[*:1])C(=O)[*:2]].K.C.[Dab].R.Y}$PEPTIDE1,PEPTIDE1,9:R3-16:R3$$$V2.0) | 0.03125 mg/L | 0.0625 mg/L | 0.125 mg/L | 0% |
| CC[C@H](C)[C@H](NC(=O)[C@@H]1C[C@@H](O)CN1C(=O)[C@@H](NC(=O)[C@@H]1CCCN1C(=O)[C@H](CCCCN)NC(=O)[C@@H](N)CCCCN)C(C)C)C(=O)N[C@H](C(=O)N[C@@H](Cc1ccc(O)cc1)C(=O)N[C@H]1CSSC[C@@H](C(=O)N[C@@H](CCN)C(=O)N[C@@H](CCCNC(=N)N)C(=O)N[C@@H](Cc2ccc(O)cc2)C(=O)O)NC(=O)[C@H](CCCCN)NC(=O)[C@@H](CCN)NC(=O)[C@H]([C@@H](C)O)NC(=O)[C@H](CCN)NC(=O)[C@H](CCCNC(=N)N)NC(=O)[C@H](CC(N)=O)NC1=O)[C@@H](C)O [Example 119, Lys-Lys-Pro-Val-Hyp-Ile-Thr-Tyr-Cys-Asn-Arg-Dab-Thr-^DDab-Lys-Cys-Dab-Arg-Tyr] (HELM PEPTIDE1{K.K.P.V.[Hyp].I.T.Y.C.N.R.[Dab].T.[NCC[C@@H](N[*:1])C(=O)[*:2]].K.C.[Dab].R.Y}$PEPTIDE1,PEPTIDE1,9:R3-16:R3$$$V2.0) | 0.03125 mg/L | 0.03125 mg/L | 0.0625 mg/L | 1% |
| CC[C@H](C)[C@H](NC(=O)[C@@H]1C[C@@H](O)CN1C(=O)[C@@H](NC(=O)[C@@H]1C[C@@H](O)CN1C(=O)[C@H](CCCCN)NC(=O)[C@@H](N)CCCCN)C(C)C)C(=O)N[C@H](C(=O)N[C@@H](Cc1ccc(O)cc1)C(=O)N[C@H]1CSSC[C@@H](C(=O)N[C@@H](CCN)C(=O)N[C@@H](CCCNC(=N)N)C(=O)N[C@@H](Cc2ccc(O)cc2)C(=O)O)NC(=O)[C@H](CCCCN)NC(=O)[C@@H](CCN)NC(=O)[C@H]([C@@H](C)O)NC(=O)[C@H](CCN)NC(=O)[C@H](CCCNC(=N)N)NC(=O)[C@H](CC(N)=O)NC1=O)[C@@H](C)O [Example 121, Lys-Lys-Hyp-Val-Hyp-Ile-Thr-Tyr-Cys-Asn-Arg-Dab-Thr-^DDab-Lys-Cys-Dab-Arg-Tyr] (HELM PEPTIDE1{K.K.[Hyp].V.[Hyp].I.T.Y.C.N.R.[Dab].T.[NCC[C@@H](N[*:1])C(=O)[*:2]].K.C.[Dab].R.Y}$PEPTIDE1,PEPTIDE1,9:R3-16:R3$$$V2.0) | 0.03125 mg/L | 0.0625 mg/L | 0.125 mg/L | 0% |
| CC[C@H](C)[C@H](NC(=O)[C@@H]1C[C@@H](O)CN1C(=O)[C@@H](NC(=O)[C@@H]1C[C@@H](O)CN1C(=O)[C@H](CCCCN)NC(=O)[C@@H](N)CCCCN)C(C)C)C(=O)N[C@H](C(=O)N[C@@H](Cc1ccc(O)cc1)C(=O)N[C@@H]1C(=O)N[C@@H](Cc2c[nH]cn2)C(=O)N[C@@H](CCCNC(=N)N)C(=O)N[C@@H](CCN)C(=O)N[C@@H]([C@@H](C)O)C(=O)N[C@H](CCN)C(=O)N[C@@H](CCCCN)C(=O)N[C@H](C(=O)N[C@@H](CCN)C(=O)N[C@@H](CCCNC(=N)N)C(=O)N[C@@H](Cc2ccc(O)cc2)C(=O)O)CSSC1(C)C)[C@@H](C)O [Example 122, Lys-Lys-Hyp-Val-Hyp-Ile-Thr-Tyr-Pen-His-Arg-Dab-Thr-^DDab-Lys-Cys-Dab-Arg-Tyr] (HELM PEPTIDE1{K.K.[Hyp].V.[Hyp].I.T.Y.[Pen].H.R.[Dab].T.[NCC[C@@H](N[*:1])C(=O)[*:2]].K.C.[Dab].R.Y}$PEPTIDE1,PEPTIDE1,9:R3-16:R3$$$V2.0) | 0.0625 mg/L | 0.125 mg/L | 0.125 mg/L | 0% |

The next lines start with results.

| Escherichia coli ATCC 25922 MIC [1] | Escherichia coli MCR-1 Af 45 MIC [2] | Klebsiella pneumoniae SSI3010 MIC [3] | Structure (SMILES) | Hemolysis at 0.2 g/L [4] |
| --- | --- | --- | --- | --- |
| 0.0625 mg/L | 0.125 mg/L | 0.25 mg/L | CC[C@H](C)[C@H](NC(=O)[C@@H]1C[C@@H](N)CN1C(=O)[C@@H](NC(=O)[C@@H]1CCCN1C(=O)[C@H](CCCCN)NC(=O)[C@@H](N)CCCCN)C(C)C)C(=O)N[C@@H](CCCNC(=N)N)C(=O)N[C@@H](Cc1ccc(O)cc1)C(=O)N[C@@H]1C(=O)N[C@@H](CC(N)=O)C(=O)N[C@@H](CCCNC(=N)N)C(=O)N[C@@H](CCN)C(=O)N[C@@H]([C@@H](C)O)C(=O)N[C@H](CCN)C(=O)N[C@@H](CCCCN)C(=O)N[C@H](C(=O)N[C@@H](CCN)C(=O)N[C@@H](CCCNC(=N)N)C(=O)N[C@@H](Cc2ccc(O)cc2)C(=O)O)CSSC1(C)C [Example 115, Lys-Lys-Pro-Val-Pro((4R)NH2)-Ile-Arg-Tyr-Pen-Asn-Arg-^Dab-Thr-^DDab-Lys-Cys-Dab-Arg-Tyr] (HELM PEPTIDE1{K.K.P.V.[N[C@@H]1C[C@@H](C(=O)[*:2])N([*:1])C1].I.R.Y.[Pen].N.R.[Dab].T.[NCC[C@@H](N[*:1])C(=O)[*:2]].K.C.[Dab].R.Y}$PEPTIDE1,PEPTIDE1,9:R3-16:R3$$$V2.0) | 0% |
| 0.0625 mg/L | 0.0625 mg/L | 0.125 mg/L | CC[C@H](C)[C@H](NC(=O)[C@@H](NC(=O)[C@@H]1C[C@@H](O)CN1C(=O)[C@@H](NC(=O)[C@@H]1C[C@@H](O)CN1C(=O)[C@H](CCCCN)NC(=O)[C@@H](N)CCCCN)C(C)C)[C@@H](C)CC)C(=O)N[C@@H](Cc1ccc(O)cc1)C(=O)N[C@@H]1C(=O)N[C@@H](CC(N)=O)C(=O)N[C@@H](CCCNC(=N)N)C(=O)N[C@@H](CCN)C(=O)N[C@@H]([C@@H](C)O)C(=O)N[C@H](CCN)C(=O)N[C@@H](CCCCN)C(=O)N[C@H](C(=O)N[C@@H](CCN)C(=O)N[C@@H](CCCNC(=N)N)C(=O)N[C@@H](Cc2ccc(O)cc2)C(=O)O)CSSC1(C)C [Example 116, Lys-Lys-Hyp-Val-Hyp-Ile-Ile-Tyr-Pen-Asn-Arg-Dab-Thr-^DDab-Lys-Cys-Dab-Arg-Tyr] (HELM PEPTIDE1{K.K.[Hyp].V.[Hyp].I.I.Y.[Pen].N.R.[Dab].T.[NCC[C@@H](N[*:1])C(=O)[*:2]].K.C.[Dab].R.Y}$PEPTIDE1,PEPTIDE1,9:R3-16:R3$$$V2.0) | 0% |
| 0.0625 mg/L | 0.0625 mg/L | 0.125 mg/L | CC[C@H](C)[C@H](NC(=O)[C@@H]1C[C@@H](O)CN1C(=O)[C@@H](NC(=O)[C@@H]1CCCN1C(=O)[C@H](CCCCN)NC(=O)[C@@H](N)CCCCN)C(C)C)C(=O)N[C@H](C(=O)N[C@@H](Cc1ccc(O)cc1)C(=O)N[C@@H]1C(=O)N[C@@H](CC(N)=O)C(=O)N[C@@H](CCCNC(=N)N)C(=O)N[C@@H](CCN)C(=O)N[C@@H]([C@@H](C)O)C(=O)N[C@H](CCN)C(=O)N[C@@H](CCCCN)C(=O)N[C@H](C(=O)N[C@@H](CCN)C(=O)N[C@@H](CCCNC(=N)N)C(=O)N[C@@H](Cc2ccc(O)cc2)C(=O)O)CSSC1(C)C)[C@@H](C)O [Example 118, Lys-Lys-Pro-Val-Hyp-Ile-Thr-Tyr-Pen-Asn-Arg-Dab-Thr-^DDab-Lys-Cys-Dab-Arg-Tyr] (HELM PEPTIDE1{K.K.P.V.[Hyp].I.T.Y.[Pen].N.R.[Dab].T.[NCC[C@@H](N[*:1])C(=O)[*:2]].K.C.[Dab].R.Y}$PEPTIDE1,PEPTIDE1,9:R3-16:R3$$$V2.0) | 0% |
| 0.0625 mg/L | 0.125 mg/L | 0.125 mg/L | CC[C@H](C)[C@H](NC(=O)[C@@H]1C[C@@H](O)CN1C(=O)[C@@H](NC(=O)[C@@H]1C[C@@H](O)CN1C(=O)[C@H](CCCCN)NC(=O)[C@@H](N)CCCCN)C(C)C)C(=O)N[C@H](C(=O)N[C@@H](Cc1ccc(O)cc1)C(=O)N[C@@H]1C(=O)N[C@@H](CC(N)=O)C(=O)N[C@@H](CCCNC(=N)N)C(=O)N[C@@H](CCN)C(=O)N[C@@H]([C@@H](C)O)C(=O)N[C@H](CCN)C(=O)N[C@@H](CCCCN)C(=O)N[C@H](C(=O)N[C@@H](CCN)C(=O)N[C@@H](CCCNC(=N)N)C(=O)N[C@@H](Cc2ccc(O)cc2)C(=O)O)CSSC1(C)C)[C@@H](C)O [Example 120, Lys-Lys-Hyp-Val-Hyp-Ile-Thr-Tyr-Pen-Asn-Arg-Dab-Thr-^DDab-Lys-Cys-Dab-Arg-Tyr] (HELM PEPTIDE1{K.K.[Hyp].V.[Hyp].I.T.Y.[Pen].N.R.[Dab].T.[NCC[C@@H](N[*:1])C(=O)[*:2]].K.C.[Dab].R.Y}$PEPTIDE1,PEPTIDE1,9:R3-16:R3$$$V2.0) | 0% |
